Measurements published in patent US20130184313A1, “NICOTINIC ACETYLCHOLINE RECEPTOR LIGANDS AND THE USES THEREOF” (The Board of Trustees of the University of Illinois, priority 2009, published 2013).
Values joined by “and” are separate entries in the source; they are usually repeats but may differ in a detail not shown here. Equal entries are not always repeated. Structures can show the parent of a compound that is named as a salt. Marks after values point to notes of the source that are not given here.

Key:
[1] = molecular target: α-Bungarotoxin-insensitive (α4β2) neuronal nicotinic receptor (Rattus norvegicus, UniProt P09483+P12390); experiment: biochemical; settings: read-out: percent inhibition of the control radioligand specific binding
male Balb/cJ mice = experiment: Forced swim test in mice; assay type: in vivo
Description: The subjects were male Balb/cJ mice obtained from Jackson Laboratory, Bar Harbor, Me. Mice were housed 4 per cage under controlled conditions of temperature, relative humidity and light-dark cycle with free access to food and water.
Mice were individually placed into clear glass cylinders (i.e., 15 cm tall×10 cm wide, 1 L beakers) containing 23±1° C. water 12 cm deep (approximately 800 mL). The time the animal spent immobile was recorded over a 6 min trial. Immobility was described as the postural position of floating in the water.
The mice were injected intraperitoneally (i.p.) 30 minutes before the start of the test. In another set of experiments, the test compounds were administered orally (p.o.) 30 minutes before the start of the test.
The length of time spent floating was analyzed by Analysis of Variance (ANOVA) with dose of drug as the between-subject factor and time spent immobile across the 6 min test as the dependent variable. Post-hoc comparisons between the treatment groups and control group were made using Fisher's PLSD test. A significance level of 5% was used throughout.

α4β4 nicotinic receptor = molecular target: T1, α4β4 nicotinic receptor (Rattus norvegicus, UniProt P09483+P12392); assay type: binding
T1 construct: expressed in transfected cells; host or cells: stably transfected cell lines (e.g., HEK293, COS, CHO, NIH3T3)
T1 sequence (P09483 31-630): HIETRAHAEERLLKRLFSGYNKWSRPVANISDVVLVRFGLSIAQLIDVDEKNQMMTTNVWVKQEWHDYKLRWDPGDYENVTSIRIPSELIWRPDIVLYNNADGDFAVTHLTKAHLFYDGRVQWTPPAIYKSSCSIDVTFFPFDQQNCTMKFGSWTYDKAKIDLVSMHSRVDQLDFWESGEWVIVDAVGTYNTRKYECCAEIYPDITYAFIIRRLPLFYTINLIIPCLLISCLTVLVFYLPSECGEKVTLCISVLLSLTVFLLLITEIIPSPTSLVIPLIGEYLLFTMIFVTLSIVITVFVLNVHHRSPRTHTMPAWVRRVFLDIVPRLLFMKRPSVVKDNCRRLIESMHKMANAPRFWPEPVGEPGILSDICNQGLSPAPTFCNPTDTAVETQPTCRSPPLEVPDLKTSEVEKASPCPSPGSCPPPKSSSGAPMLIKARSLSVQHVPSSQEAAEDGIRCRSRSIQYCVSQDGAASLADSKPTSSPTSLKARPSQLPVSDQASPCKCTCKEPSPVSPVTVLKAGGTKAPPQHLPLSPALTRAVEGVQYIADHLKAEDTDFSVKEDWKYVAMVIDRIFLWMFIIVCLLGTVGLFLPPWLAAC
T1 sequence (P12392 21-495): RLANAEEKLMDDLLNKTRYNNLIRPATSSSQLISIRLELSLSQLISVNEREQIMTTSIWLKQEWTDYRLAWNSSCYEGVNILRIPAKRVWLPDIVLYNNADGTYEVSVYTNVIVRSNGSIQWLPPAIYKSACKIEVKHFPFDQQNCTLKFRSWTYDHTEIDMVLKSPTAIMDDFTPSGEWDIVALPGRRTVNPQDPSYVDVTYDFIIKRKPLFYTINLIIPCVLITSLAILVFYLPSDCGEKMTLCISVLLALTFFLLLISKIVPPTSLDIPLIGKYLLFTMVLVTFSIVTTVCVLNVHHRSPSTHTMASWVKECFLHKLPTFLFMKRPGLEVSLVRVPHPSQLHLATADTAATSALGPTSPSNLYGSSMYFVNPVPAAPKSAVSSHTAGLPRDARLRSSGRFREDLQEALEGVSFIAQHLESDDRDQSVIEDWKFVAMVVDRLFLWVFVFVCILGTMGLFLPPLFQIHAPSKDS
Description: All binding assays were performed according to procedures set forth in the University of North Carolina at Chapel Hill National Institute of Mental Health Psychoactive Drug Screening Program Assay Protocol Book (pp. 50-54; PI: Bryan L. Roth MD, PhD).
Nicotinic receptors: α2β2, α2β4, α3β2, α3β4, α4β2, α4β4, endogenous α4β2. Assay buffer: 50 mM Tris-HCl, pH 7.4. Membrane fraction source: Stably transfected cell lines (e.g., HEK293, COS, CHO, NIH3T3) (α2β2, α2β4, α3β2, α3β4, α4β2, α4β4) or rat forebrain (α4β2).
Aliquots (50 μl) of radioligand were dispensed into the wells of a 96-well plate containing 100 μl of assay buffer. Then, duplicate 50-0 aliquots of the test and reference compound dilutions were added. […]
The 250-μl reactions were incubated at room temperature and shielded from light (to prevent photolysis of light-sensitive ligands) for 4 hours, then harvested by rapid filtration onto Whatman GF/B glass fiber filters pre-soaked with 0.5% polyethyleneimine using a 96-well Brandel harvester. […] The tubes were capped, labeled, and counted by liquid scintillation counting. […]

α-Bungarotoxin-insensitive (α4β2) neuronal nicotinic receptor, sequence (P09483 31-630): as the sequence (P09483 31-630) above
α-Bungarotoxin-insensitive (α4β2) neuronal nicotinic receptor, sequence (P12390 25-500): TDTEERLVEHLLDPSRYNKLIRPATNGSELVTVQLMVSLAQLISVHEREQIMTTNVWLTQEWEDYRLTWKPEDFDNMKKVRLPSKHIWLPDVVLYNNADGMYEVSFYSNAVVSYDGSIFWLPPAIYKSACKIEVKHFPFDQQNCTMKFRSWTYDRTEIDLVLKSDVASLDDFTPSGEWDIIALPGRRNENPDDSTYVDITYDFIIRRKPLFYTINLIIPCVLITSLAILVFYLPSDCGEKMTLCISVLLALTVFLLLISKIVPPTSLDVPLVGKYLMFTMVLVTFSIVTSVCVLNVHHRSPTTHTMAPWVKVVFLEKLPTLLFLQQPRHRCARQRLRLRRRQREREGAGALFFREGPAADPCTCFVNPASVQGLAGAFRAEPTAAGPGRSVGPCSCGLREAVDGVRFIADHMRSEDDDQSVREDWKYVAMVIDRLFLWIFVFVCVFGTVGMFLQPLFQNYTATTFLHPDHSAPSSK

Structure (SMILES)	inhibition at 0.1 µM [1]	further results
OCCCc1cccc(-c2cncc(OC[C@@H]3CCN3)c2)c1 [Example 15c, 3-[3-[5-[(2(S)-Azetidinyl)methoxy]-3-pyridyl]phenyl]-1-propanol]	59 to 100%	change in immobility time compared to the vehicle (male Balb/cJ mice; mouse, in vivo): did not show any change; reduction in immobility time compared to vehicle (male Balb/cJ mice; mouse, in vivo): 24.5 s; effects in the forced swim test as indicated by a reduction in immobility time (male Balb/cJ mice; mouse, in vivo, ip): positive effects; Average Immobility Time (male Balb/cJ mice; mouse, in vivo, ip, 5 mg/kg): 110.6 s; Average Immobility Time (male Balb/cJ mice; mouse, in vivo, ip, 10 mg/kg): 105.1** seconds and 85.3** seconds; Average Immobility Time (male Balb/cJ mice; mouse, in vivo, ip, 20 mg/kg): 49.7** seconds
c1ccc(COCCC2CCN(c3cncc(OC[C@@H]4CCCN4)c3)CC2)cc1 [Example 51, 3-[4-[2-(Benzyloxy)ethyl]-1-piperidinyl]-5-[(2(S)-pyrrolidinyl)methoxy]pyridine]	59 to 100%	–
CN1CCC[C@H]1COc1cncc(-c2cc(CCCOc3ccccc3)no2)c1 [Example 41, 3-[(1-Methyl-2(S)-pyrrolidinyl)methoxy]-5-[3-(3-phenoxypropyl)-5-isoxazolyl]pyridine Hydrochloride]	59 to 100%	–
OCCCc1cccc(-c2cncc(OC[C@H]3CCN3)c2)c1 [Example 19, 3-[3-[5-[(2(R)-Azetidinyl)methoxy]-3-pyridyl]phenyl]-1-propanol]	59 to 100%	–
OCCc1cccc(-c2cncc(OC[C@@H]3CCN3)c2)c1 [Example 24, 2-[3-[5-[(2(S)-Azetidinyl)methoxy]-3-pyridyl]phenyl]ethanol]	59 to 100%	–
c1cncc(OC[C@H]2C[C@@H]2c2cncc(OC[C@@H]3CCN3)c2)c1 [Example 12, 3-[(2(S)-Azetidinyl)methoxy]-5-[(1S,2S)-2-[(3-pyridyloxy)methyl]cyclopropyl]pyridine]	59 to 100%	–
Oc1ccc(OCCC2CCN(c3cncc(OC[C@@H]4CCCN4)c3)CC2)cc1 [Example 70, 4-[2-[1-[5-[(2(S)-Pyrrolidinyl)methoxy]-3-pyridyl]-4-piperidinyl]ethoxy]phenol]	8 to 28%	–
CN[C@H]1CC[C@@H](c2ccc(Cl)c(Cl)c2)c2ccccc21 [Sertraline, sertraline, reference compound]	–	Average Immobility Time (male Balb/cJ mice; Table 2, 20 mg/kg i.p., 30 min before test, 6 min trial, vehicle 126.3): 11.99** seconds; Average Immobility Time (male Balb/cJ mice; Table 4, 10 mg/kg i.p., 30 min before test, 6 min trial, vehicle 115.2): 23.7** seconds; Average Immobility Time (male Balb/cJ mice; Table 5, 10 mg/kg i.p., 30 min before test, 6 min trial, vehicle 104.9): 47.8** seconds
c1ccc(COCCC2CCN(c3cncc(OC[C@H]4CCCN4)c3)CC2)cc1 [Example 62, 3-[4-[2-(Benzyloxy)ethyl]-1-piperidinyl]-5-[(2(R)-pyrrolidinyl)methoxy]pyridine]	8 to 28%	–
CC(=O)NCCCc1cccc(-c2cncc(OC[C@@H]3CCN3)c2)c1 [Example 22, N-(3-[3-[5-[(2(S)-Azetidinyl)methoxy]-3-pyridyl]phenyl]propyl]acetamide]	59 to 100%	–
c1ccc(COC[C@H]2C[C@@H]2c2cncc(OC[C@@H]3CCN3)c2)nc1 [Example 14, 3-[(2(S)-Azetidinyl)methoxy]-5-[(1S,2S)-2-[(2-pyridinylmethoxy)methyl]cyclopropyl]pyridine]	59 to 100%	–
c1ccc(OCCC2CCN(c3cncc(OC[C@@H]4CCCN4)c3)CC2)cc1 [Example 58, 3-[4-(2-Phenoxyethyl)-1-piperidinyl]-5-[(2(S)-pyrrolidinyl)methoxy]pyridine]	8 to 28%	–
OCC[C@H]1C[C@@H]1c1cncc(OC[C@@H]2CCN2)c1 [Example 2, 2-[(1R,2S)-2-[5-[(2(S)-Azetidinyl)methoxy]-3-pyridyl]cyclopropyl]ethanol]	59 to 100%	effects in the forced swim test as indicated by a reduction in immobility time (male Balb/cJ mice; mouse, in vivo, ip): positive effects; Average Immobility Time (male Balb/cJ mice; mouse, in vivo, ip, 10 mg/kg): 44** seconds; Average Immobility Time (male Balb/cJ mice; mouse, in vivo, ip, 20 mg/kg): 7** seconds
c1ccc(OC[C@H]2C[C@@H]2c2cncc(OC[C@@H]3CCN3)c2)cc1 [Example 11, 3-[(2(S)-Azetidinyl)methoxy]-5-[(1S,2S)-2-(phenoxymethyl)cyclopropyl]pyridine]	59 to 100%	–
OCc1cc(-c2cncc(OC[C@@H]3CCN3)c2)on1 [Example 37, 5-[5-(2(S)-Azetidinylmethoxy)-3-pyridyl]-3-isoxazolylmethanol]	59 to 100%	–
c1ccc(COCCc2cccc(-c3cncc(OC[C@@H]4CCN4)c3)c2)cc1 [Example 27, 3-[((2S)-Azetidinyl)methoxy]-5-[3-[2-(benzyloxy)ethyl]phenyl]pyridine]	59 to 100%	–
OCCCc1ccc(-c2cncc(OC[C@@H]3CCN3)c2)cc1 [Example 15d]	59 to 100%	–
c1ncc(N2CC3CC3C2)cc1OC[C@@H]1CCN1 (stereo partly drawn) [Example 46, 3-[5-[(2(S)-Azetidinyl)methoxy]-3-pyridyl]-3-azabicyclo[3.1.0]hexane]	59 to 100%	–
OCCCCC#Cc1cncc(OC[C@@H]2CCN2)c1 [AMOP—H—OH]	–	effects in the forced swim test as indicated by a reduction in immobility time (male Balb/cJ mice; mouse, in vivo, ip): positive effects; Average Immobility Time (male Balb/cJ mice; mouse, in vivo, ip, 0.3 mg/kg): 116.7 s; Average Immobility Time (male Balb/cJ mice; mouse, in vivo, ip, 1 mg/kg): 20.2** seconds; Average Immobility Time (male Balb/cJ mice; mouse, in vivo, ip, 10 mg/kg): 5.3** seconds
OCC[C@H]1C[C@@H]1c1cncc(OC[C@@H]2CCN2)c1 [drawing 418]	–	Ki (α4β4 nicotinic receptor): 83 nM
